Test results published in PMC9549030, “Structural basis for specific inhibition of the deubiquitinase UCHL1” (Nature Communications, 2022).
Several values for one entry are separate records, joined by “and”; a condition that tells them apart may be missing. Equal values may be shown once. Read-outs that look alike come from different tables or passages of the source.

Key:
[1] = target: T1, UCHL1 (Homo sapiens, UniProt P09936); experiment: Ub-Rhodamine (Ubiquitin rhodamine cleavage) assay; type: biochemical; conditions: 1 h preincubation; for remaining activity at 0.000610352 µM: compound 0.610352 nM; for remaining activity at 0.0012207 µM: compound 1.2207 nM; for remaining activity at 0.00244141 µM: compound 2.44141 nM; for remaining activity at 0.00488281 µM: compound 4.88281 nM; for remaining activity at 0.00976562 µM: compound 9.76562 nM; for remaining activity at 0.0195312 µM: compound 19.5312 nM; for remaining activity at 0.0390625 µM: compound 39.0625 nM; for remaining activity at 0.078125 µM: compound 78.125 nM; for remaining activity at 0.15625 µM: compound 156.25 nM; for remaining activity at 0.3125 µM: compound 312.5 nM; for remaining activity at 0.625 µM: compound 625 nM; for remaining activity at 1.25 µM: compound 1250 nM; for remaining activity at 2.5 µM: compound 2500 nM; for remaining activity at 5 µM: compound 5000 nM; for remaining activity at 10 µM: compound 10000 nM
T1 sequence (P09936 1-223): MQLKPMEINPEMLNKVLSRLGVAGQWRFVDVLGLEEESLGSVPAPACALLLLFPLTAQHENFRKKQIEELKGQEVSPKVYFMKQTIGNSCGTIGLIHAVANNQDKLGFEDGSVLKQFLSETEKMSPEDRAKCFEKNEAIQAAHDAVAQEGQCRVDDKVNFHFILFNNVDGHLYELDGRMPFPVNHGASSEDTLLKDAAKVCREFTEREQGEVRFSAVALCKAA

[2] = target: T1, UCHL1; experiment: Thermal shift assay; type: binding; conditions: UCHL1 1 µM, 1 h, replicates
Method: Reactions were performed in white 96-well PCR plates (Bio-Rad). UCHL1 was diluted in thermal shift buffer (1x PBS, 5 mM DTT) to a 4x concentration of 4 µM. The protein was then mixed with 4x compound dissolved in thermal shift buffer in a 1:1 ratio. To each well was added 20 µL of DUB-Inhibitor solution, followed by 1 h incubation time. To each well was then added 20 µL 4x SYPRO Orange in thermal shift buffer. After sealing the plates with a transparent film, thermal denaturation (gradient: 20–90 °C; Increment: 0.3 °C, hold for 5 s before read) was performed and monitored by a Bio-Rad Connect cycler.

[3] = tested on: T2, UCHL1 in HEK293 cells; experiment: Cellular Ub-probe (HA-Ub-VS) competition, inhibition of cellular UCHL1; type: cell-based, human; conditions: HEK293 cells
T2 construct: Western blot analysis of endogenous UCHL1 labeled with HA-Ub-VS after treatment of HEK293 cells; endogenous in cells; host or cells: HEK293
Method: Proteins were transferred to a polyvinylidene fluoride (PVDF, only experiments in Fig. 4e and Supplementary Fig. 7e, f) or nitrocellulose (all other experiments) membrane using a Trans-Blot Turbo system (Bio-Rad, 1.3 A, 25 V, 10 min). The membranes were blocked with 5% (m/v) nonfat milk in PBS-T buffer and incubated with indicated primary antibodies (anti-UCHL1, 1:1000, Cell Signaling, D3T2E; anti-PARK7, 1:1000, Cell Signaling, D29E5; anti-Tubulin, 1:4000, Sigma, T6199; anti-Hemagglutinin, 1:1000, BioLegend, 16B12; anti-flag, 1:2000, Sigma, F3165; anti-Ubiquitin, 1:1000, Cell Signaling, P4D1; anti-Ubiquitin, 1:300, Santa Cruz, P4D1, sc-8017; anti-UCHL3, 1:1000, Proteintech, 12384-1-AP) overnight. Then the membranes were incubated with the respective secondary antibody (anti-mouse,1:5000, Sigma, NXA931; anti-rabbit, 1:5000, Sigma, GENA934) coupled to horseradish peroxidase. The chemiluminescent reaction was initiated using a Clarity Western ECL substrate (Bio-Rad) and images were taken on a ChemiDoc MP Imaging System (Bio-Rad).
The total protein concentration was adjusted to 2 mg/ml by diluting each sample with ABP lysis buffer. A final concentration of 1 µM HA-Ub-VS probe was added, followed by incubation for 30 min at 37 °C. The labeling reaction was quenched by the addition of 4x LDS sample buffer. The samples were separated via SDS-PAGE and further analyzed via western blotting as described above.

[4] = target: T1, UCHL1; experiment: Identification of probe-labeled proteins with mass spectrometry (pulldown enrichment); conditions: HEK293 cells; 1 µM; 24 h
Method: Cells were cultured, treated with a compound, and lysed as described above. The cell lysate was diluted to a protein concentration of 2 mg/mL with ABP lysis buffer. 1 µL of each click reagent (see above) were added to each sample, followed by an incubation period of one hour at room temperature with protection from light. The sample volume was adjusted to 1000 µL with PBS and 30 µL of a NeutrAvidin (Thermo Fisher) bead slurry (prewashed 3x with PBS) were added to each sample. The samples were incubated for one hour to overnight on a rotator at 15 rpm at 4 °C. Beads were pelleted by centrifugation, the supernatant was discarded, and the beads were washed six times (1x with ½x lysis buffer, followed by five washes with PBS). After removing the washing solution completely, the beads were subjected to reduction with dithiothreitol (1 mM), alkylation with chloroacetamide (5 mM) and on-bead digestion with first LysC (Serva Biotech, 1 h, 37 °C), followed by trypsin (Sigma Aldrich, 1 h, overnight). Tryptic peptides were desalted with C18 StageTips and analyzed by nano-HPLC-MS/MS.
An Ultimate 3000 RSLC nano-HPLC system and a Hybrid-Orbitrap mass spectrometer (Q Exactive Plus) equipped with a nano-spray source (Thermo Fisher Scientific) was used. The protein fragments were enriched on a C18 PepMap 100 column (5 μm, 100 Å, 300 μm ID * 5 mm, Dionex) using 0.1% TFA, at a flow rate of 30 μL/min, for 5 min and separated on a C18 PepMap 100 column (3 μm, 100 Å, 75 μm ID × 50 cm) using a linear gradient (5–30% ACN/H2O + 0.1% formic acid over 90 min) with a flow rate of 300 nL/min. […] Signals in the mass range of m/z 300 to 1650 were acquired at a resolution of 70,000 for the full scan, followed by ten high-energy collision-dissociation (HCD) MS/MS scans of the most intense at least doubly charged ions at a resolution of 17,500. Proteins were relatively quantified by using MaxQuant[60] v.2.0.3.1, including the Andromeda search algorithm and searching the Homo sapiens reference proteome of the UniProt database. Briefly, an MS/MS ion search was performed for enzymatic trypsin cleavage, allowing two missed cleavages. Carbamidomethylation was set as a fixed protein modification, and oxidation of methionine and acetylation of the N-terminus were set as variable modifications. The mass accuracy was set to 20 parts per million (ppm) for the first search and to 4.5 ppm for the second search. The false discovery rates for peptide and protein identification were set to 0.01. Only proteins for which at least two peptides were quantified were chosen for further validation. Relative quantification of proteins was performed by using the label-free quantification algorithm implemented in MaxQuant. Statistical data analysis of pulldown samples was performed using Perseus[61] v.1.6.15.0, including proteins which were identified in at least four of the five biological replicates which were used per condition. Label-free quantification (LFQ) intensities were log-transformed (log2); replicate samples were grouped together. Pairwise comparisons of groups were performed separately. Missing values were imputed using small normally distributed values (width 0.3, downshift 1.8) and a two-sided t-test (s0 = 5, FDR = 0.001) was performed.

[5] = tested on: DUBs in HEK293 lysate; experiment: Activity-based protein profiling in the lysate with Ub-VS competition; type: binding, human; conditions: 1 µM, 1 h
Method: Cells (4 × 10^6) were seeded in 10 cm dishes and grown to 90% confluency. The medium was aspirated, cells were washed with ice-cold PBS, treated with 600 µL ABP lysis buffer (1% (v/v) IGEPAL, 50 mM Tris, 150 mM NaCl, 5% glycerol, pH 8, cOmplete protease inhibitor cocktail), and incubated on ice for 15 min. The lysed cells were scrapped off the dish, cleared by centrifugation, and the protein concentration was determined via a Bradford assay. […] Each compound was diluted to a 2x concentration in PBS buffer from a 10 mM stock in DMSO (final concentration: 1 µM). Then each compound dilution or a DMSO dilution was mixed with cell lysate and incubated for one hour at room temperature. […] Samples were resolved by SDS-PAGE using a 4–12% Bis-Tris gel (Invitrogen, NuPAGE) with MES SDS running buffer for 50 min at 180 V. Fluorescence was read out using the Alexa564 (λex/em 520–545/577–613 nm, for TAMRA) and Alexa680 (λex/em 650–675/700–730 nm, for the PageRuler Prestained NIR Protein Ladder (Thermo Scientific)) channels on a ChemiDoc MP Imaging System (Bio-Rad).

[6] = read-out: UCHL1 activity, data point mean
[7] = source data Fig. 3b, read-out: Averaged IC50s from independent experiments (single experiments)

Structure (SMILES)	remaining activity at 0.000610352 µM [1, 6] [%]	remaining activity at 0.0012207 µM [1, 6] [%]	remaining activity at 0.00244141 µM [1, 6] [%]	remaining activity at 0.00488281 µM [1, 6] [%]	remaining activity at 0.00976562 µM [1, 6] [%]	remaining activity at 0.0195312 µM [1, 6] [%]	remaining activity at 0.0390625 µM [1, 6] [%]	remaining activity at 0.078125 µM [1, 6] [%]	remaining activity at 0.15625 µM [1, 6] [%]	remaining activity at 0.3125 µM [1, 6] [%]	remaining activity at 0.625 µM [1, 6] [%]	remaining activity at 1.25 µM [1, 6] [%]	remaining activity at 2.5 µM [1, 6] [%]	remaining activity at 5 µM [1, 6] [%]	remaining activity at 10 µM [1, 6] [%]	IC50 [1, 7]	melting temperature (Tm) of UCHL1 ([2]; compound 1.25 µM)	melting temperature (Tm) of UCHL1 ([2]; compound 2.5 µM)	melting temperature (Tm) of UCHL1 ([2]; compound 5 µM)	IC50 ([1]; read-out: IC50 (UCHL1)) [nM]	further results
COCCNC(=O)c1ccc(-n2cnc(NC(=O)[C@H]3CCN(C#N)C3)c2)cc1 [Cpd158, reference compound]	96.9	97.3	95.8	91.1	90.7	86.9	82	76.7	62.5	34.6	14.3	4.23	2.34	1.97	1.42	222 nM and 36 nM and 129 nM and 153 nM and 104 nM	59.4	59.4	59.1 and 59.4	–	inhibition of cellular UCHL1 ([3]; 1 and 5 µM, 1 h and 24 h (Supplementary Fig. 5f)): time- and concentration-dependent inhibition
C#CCCCNC(=O)c1ccc(-n2cnc(NC(=O)[C@@H]3CCN(C#N)C3)c2)cc1 [GK13R]	98.3	99.2	99.4	97.8	96.8	95.9	98.3	93.7	88	80.6	70.3	52.9	34.3	13.6	3.56	2210 nM and 1980 nM	53.1 and 53.4	53.7 and 53.4	54 and 54.6	2000	IC50 ([1]; mean ± SD of independent experiments, read-out: IC50 (UCHL1)): 2090 ± 164 nM; remaining activity at 0.000305176 µM ([1]; compound 0.305176 nM, read-out: UCHL1 activity, data point mean): 103%; inhibition of cellular UCHL1 ([3]; 24 h): complete inhibition of UCHL1; change in log2 enrichment values of UCHL1, GK13S vs GK13R [4]: 2
C#CCn1cc(-c2ccc(C(=O)N[C@@H]3CCN(C#N)C3)c(F)c2)cn1 [CG50R]	–	–	–	–	–	–	–	–	–	–	–	–	–	–	–	–	–	–	–	–	DUB engagement (Ub-VS competitive labeling) [5]: did not show DUB engagement
C#CCCCNC(=O)[C@@H]1CCN(C#N)C1 [GK16R]	–	–	–	–	–	–	–	–	–	–	–	–	–	–	–	–	53.4 and 53.1	53.1 and 53.4	53.4 and 53.1	> 100000	remaining activity at 0.00050402 µM ([1]; compound 0.50402 nM, read-out: UCHL1 activity, data point mean): 91.8%; remaining activity at 0.00151206 µM ([1]; compound 1.51206 nM, read-out: UCHL1 activity, data point mean): 91.4%; remaining activity at 0.00453618 µM ([1]; compound 4.53618 nM, read-out: UCHL1 activity, data point mean): 89.6%; remaining activity at 0.0136085 µM ([1]; compound 13.6085 nM, read-out: UCHL1 activity, data point mean): 96.6%; remaining activity at 0.0408257 µM ([1]; compound 40.8257 nM, read-out: UCHL1 activity, data point mean): 94.5%; remaining activity at 0.122477 µM ([1]; compound 122.477 nM, read-out: UCHL1 activity, data point mean): 93.7%; remaining activity at 0.367431 µM ([1]; compound 367.431 nM, read-out: UCHL1 activity, data point mean): 92.4%; remaining activity at 1.10229 µM ([1]; compound 1102.29 nM, read-out: UCHL1 activity, data point mean): 91.5%; remaining activity at 3.30688 µM ([1]; compound 3306.88 nM, read-out: UCHL1 activity, data point mean): 89%; remaining activity at 30.581 µM ([1]; compound 30581 nM, read-out: UCHL1 activity, data point mean): 83.6%; remaining activity at 100 µM ([1]; compound 100000 nM, read-out: UCHL1 activity, data point mean): 80.5%
C#CCN1CCN(CCOc2ccc(C(CCC)NC(=O)/C(C#N)=C/c3cccc(Br)n3)cc2)CC1 (stereo not shown) [MS037]	–	–	–	–	–	–	–	–	–	–	–	–	–	–	–	–	–	–	–	–	DUB engagement (Ub-VS competitive labeling) [5]: did not show DUB engagement
